Laboratory results: patent US12473266B2, “Benzoxazole and related compounds useful as chaperone-mediated autophagy modulators” (Albert Einstein College of Medicine, priority 2018, dated 2025)

Tests used:
[1] = system: CMA activity (KFERQ-Dendra reporter) in NIH 3T3 fibroblasts; assay: Photoconvertible CMA reporter (KFERQ-Dendra) assay, fluorescent puncta per cell; type: cell-based; settings: NIH 3T3 KFERQ-Dendra; for effect on the number of fluorescent puncta per cell: result in words
Method: The photoactivatable CMA reporter assay was constructed by inserting a sequence of 21 amino acid of Ribonuclease A bearing the CMA-targeting motif in the N-terminus multicloning site of the photoactivatable protein mCherry1 or the photoswitchable protein Dendra 2.
NIH 3T3 fibroblasts were stably transduced with a photoconvertible CMA reporter, KFERQ-Dendra and were photoswitched by exposure to a […] (constant current) LED (Norlux, 405 nm) for 10 minutes and at the desired times fixed in 3% formaldehyde. Test cells are exposed to the indicated concentrations of the compounds, e.g. for 12 hours or 24 hours. Cells are imaged, e.g., by using high content microscopy (Operetta, Perkin Elmer) or by capturing images with an Axiovert 200 fluorescence microscope (Zeiss) with apotome and equipped with a 63×1.4 NA oil objective lens and red (ex. 570/30 nm, em. 615/30 nm), cyan (ex. 365/50 nm and em. 530/45 nm) and green (ex. 475/40 nm and em. 535/45 nm) filter sets (Chroma). Images were acquired with a high-resolution CCD camera after optical sectioning through the apotome. CMA activity is measured as the average number of fluorescent puncta (CMA active lysosomes) per cell. Values are expressed relative to values in untreated cells that were assigned an arbitrary value of 1 and are mean of >2,500 cells counted per condition. The S.D. in all instances was <0.01% mean value.

in vitro = assay: in vitro
Method: Microsome stability is determined in human, rat, and mouse, liver microsomes.
Compound at 3 μM final concentration along with 0.5 mg/mL microsome protein and 1 mM NADPH was incubated for 0, 5, 15, 30 and 60 min. As a negative control, test compound is incubated with microsomes in the absence of NADPH. Samples are quenched with methanol and centrifuged for 25 min at 2500 rpm to precipitate proteins. Supernatants are analyzed (N=3) by LC-MS./MS. The ln peak area ratio (compound peak area/internal standard peak area) is plotted against time and the gradient of the line determined the elimination rate constant [k=(−1)(slope)].
R^2 is the correlation coefficient of the linear regression for the determination of kinetic constant. T1/2 is the half life and CLint (mic) is the intrinsic clearance. CLint(liver)=CLint (mic)*mg microsomal protein/g liver weight*g liver weight/kg body weight. Liver weight/kg body weight is 20 g/kg for human.

## Clc1ccc2nc(-c3ccc(-c4ccccc4)cc3)oc2c1 [Cmp. 1, 2-([1,1′-biphenyl]-4-yl)-6-chlorobenzo[d]oxazole]
[1]; column 'Time' = 5
  CMA activity, average number of fluorescent puncta (CMA active lysosomes) per cell, relative to untreated cells (=1): 2.43
[1]; column 'Time' = 10
  CMA activity, average number of fluorescent puncta (CMA active lysosomes) per cell, relative to untreated cells (=1): 2.16
[1]; column 'Time' = 20
  CMA activity, average number of fluorescent puncta (CMA active lysosomes) per cell, relative to untreated cells (=1): 2.98
[1]; column 'Time' = 30
  CMA activity, average number of fluorescent puncta (CMA active lysosomes) per cell, relative to untreated cells (=1): 3.22
In vitro; human, microsomes
  CLint scaled at 3 μM: < 8.6 mL/min/kg
  half-life at 3 μM: > 2.42 h
In vitro; human, microsomes, 3 μM
  CLint(mic): < 9.6 µL/min/mg
In vitro; human, microsomes, 1 h, 3 μM
  Remaining (T = 60 min): 83.4%

## CC(=O)Nc1ccc(-c2nc3ccc(Cl)cc3o2)cc1 [Cmp. 2, N-(4-(6-chlorobenzo[d]oxazol-2-yl)phenyl)acetamide]
[1]; column 'Time' = 5
  CMA activity, average number of fluorescent puncta (CMA active lysosomes) per cell, relative to untreated cells (=1): 2.72
[1]; column 'Time' = 10
  CMA activity, average number of fluorescent puncta (CMA active lysosomes) per cell, relative to untreated cells (=1): 2.63
[1]; column 'Time' = 20
  CMA activity, average number of fluorescent puncta (CMA active lysosomes) per cell, relative to untreated cells (=1): 3.40
[1]; column 'Time' = 30
  CMA activity, average number of fluorescent puncta (CMA active lysosomes) per cell, relative to untreated cells (=1): 5.12

## O=C(Nc1ccc(-c2nc3ccc(Cl)cc3o2)cc1)C(F)(F)F [Cmp. 3, N-(4-(6-chlorobenzo[d]oxazol-2-yl)phenyl)-2,2,2-trifluoroacetamide]
[1]
  effect on the number of fluorescent puncta per cell: positive effect

## CC(C)CC(=O)Nc1ccc(-c2nc3ccc(Cl)cc3o2)cc1 [Cmp. 5, N-(4-(6-chlorobenzo[d]oxazol-2-yl)phenyl)-3-methylbutanamide]
[1]
  effect on the number of fluorescent puncta per cell: positive effect

## O=C(Nc1ccc(-c2nc3ccc(Cl)cc3o2)cc1)c1ccc(F)cc1 [Cmp. 6, N-(4-(6-chlorobenzo[d]oxazol-2-yl)phenyl)-4-fluorobenzamide]
[1]
  effect on the number of fluorescent puncta per cell: positive effect

## O=S(=O)(Nc1ccc(-c2nc3ccc(Cl)cc3o2)cc1)c1ccc(F)cc1 [Cmp. 7, N-(4-(6-chlorobenzo[d]oxazol-2-yl)phenyl)-4-fluorobenzenesulfonamide]
[1]
  effect on the number of fluorescent puncta per cell: positive effect

## O=S(=O)(Nc1ccc(-c2nc3ccc(Cl)cc3o2)cc1)C(F)(F)F [Cmp. 8, N-(4-(6-chlorobenzo[d]oxazol-2-yl)phenyl)-1,1,1-trifluoromethanesulfonamide]
[1]
  effect on the number of fluorescent puncta per cell: positive effect

## FC(F)(F)c1ccc(-c2ccc(-c3nc4ccc(Cl)cc4o3)cc2)cc1 [Cmp. 10, 6-chloro-2-(4′-trifluoromethyl-[1,1′-biphenyl]-4-yl)benzo[d]oxazole]
[1]
  effect on the number of fluorescent puncta per cell: positive effect

## O=C(Nc1ccc(-c2nc3cc(Cl)ccc3o2)cc1)C(F)(F)F [Cmp. 13, N-(4-(5-chlorobenzo[d]oxazol-2-yl)phenyl)-2,2,2-trifluoroacetamide]
[1]
  effect on the number of fluorescent puncta per cell: positive effect

## O=C(Nc1ccc(-c2ccc(-c3nc4cc(Cl)ccc4o3)cc2)cc1)C(F)(F)F [Cmp. 14, N-(4′-(5-chlorobenzo[d]oxazol-2-yl)-[1,1′-biphenyl]-4-yl)-2,2,2-trifluoroacetamide]
[1]
  effect on the number of fluorescent puncta per cell: positive effect

## Clc1ccc2c(c1)OCC(c1ccc(-c3ccccc3)cc1)=N2 [Cmp. A]
In vitro; human, microsomes, 3 μM
  CLint(mic): 36.6 µL/min/mg
In vitro; human, microsomes, 1 h, 3 μM
  Remaining (T = 60 min): 30.1%

## O=C(O)Cc1ccccc1Nc1c(Cl)cccc1Cl [Diclofenac]
In vitro; human, microsomes, 1 h, 3 μM
  Remaining (T = 60 min): 6.8%

## C[C@]12CC[C@H]3[C@@H](CCC4=CC(=O)CC[C@@]43C)[C@@H]1CC[C@@H]2O [Testosterone]
In vitro; human microsomes, 60 min incubation
  Remaining (T = 60 min): 4.6%
